From ChEMBL document CHEMBL4476883, “Hydroxy formamide derivatives and their use” (2017)

Tests used:
[1] = target: T1, Bone morphogenetic protein 1 (Homo sapiens, UniProt P13497); experiment: Inhibition of C-terminal FLAG-6x-His epitope tagged and N-terminal human RAGE signal sequence tagged human BMP1 (23 to 721 amino acids) expressed in CHO-E1A cells pre-incubated for 10 mins before promyostatin peptide substrate addition and measured after 60 mins using 0.5 nM BMP1 by FRET based assay; type: cell-based
T1 sequence (P13497 whole entry): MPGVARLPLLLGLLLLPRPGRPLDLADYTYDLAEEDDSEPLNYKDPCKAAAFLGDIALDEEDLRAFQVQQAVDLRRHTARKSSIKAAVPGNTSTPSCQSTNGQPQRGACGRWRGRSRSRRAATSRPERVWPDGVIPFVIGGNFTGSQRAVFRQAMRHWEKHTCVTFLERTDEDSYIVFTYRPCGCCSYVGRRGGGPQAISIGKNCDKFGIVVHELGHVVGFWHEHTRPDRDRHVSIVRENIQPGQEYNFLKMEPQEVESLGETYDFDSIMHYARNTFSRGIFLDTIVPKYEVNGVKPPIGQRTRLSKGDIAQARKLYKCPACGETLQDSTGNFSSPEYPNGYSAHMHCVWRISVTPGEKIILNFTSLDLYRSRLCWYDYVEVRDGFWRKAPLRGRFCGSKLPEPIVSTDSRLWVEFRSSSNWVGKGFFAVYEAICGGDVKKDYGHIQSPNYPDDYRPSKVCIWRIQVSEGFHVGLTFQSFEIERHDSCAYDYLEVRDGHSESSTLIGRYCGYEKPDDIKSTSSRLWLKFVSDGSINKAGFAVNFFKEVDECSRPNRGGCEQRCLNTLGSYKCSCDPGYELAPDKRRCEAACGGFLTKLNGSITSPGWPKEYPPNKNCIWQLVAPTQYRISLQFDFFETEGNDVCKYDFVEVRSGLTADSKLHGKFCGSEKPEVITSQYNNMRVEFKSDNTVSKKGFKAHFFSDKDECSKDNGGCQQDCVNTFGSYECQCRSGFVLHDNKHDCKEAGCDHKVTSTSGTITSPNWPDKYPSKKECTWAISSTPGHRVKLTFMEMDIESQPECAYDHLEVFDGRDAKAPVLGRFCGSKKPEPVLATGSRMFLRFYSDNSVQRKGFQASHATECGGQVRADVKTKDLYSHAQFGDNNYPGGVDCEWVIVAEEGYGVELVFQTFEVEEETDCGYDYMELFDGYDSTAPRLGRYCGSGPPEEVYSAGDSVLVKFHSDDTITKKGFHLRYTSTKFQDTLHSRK

[2] = target: T1, Bone morphogenetic protein 1; experiment: Inhibition of C-terminal FLAG-6x-His epitope tagged and N-terminal human RAGE signal sequence tagged human BMP1 (23 to 721 amino acids) expressed in CHO-E1A cells pre-incubated for 10 mins before promyostatin peptide substrate addition and measured after 30 mins using 50 nM BMP1 by FRET based assay; type: cell-based
Tolloid-like protein 1 = Tolloid-like protein 1 (Homo sapiens, UniProt O43897, I156V/N221S/V284A); experiment: Inhibition of recombinant human TLL1 I156V/N221S/V284A mutant expressed in CHOE1A cells pre-incubated for 10 mins before promyostatin peptide substrate addition and measured after 60 mins by FRET based assay; type: cell-based
Chain of Tolloid-like protein 1 (O43897 148-1013 I156V/N221S/V284A limits assumed): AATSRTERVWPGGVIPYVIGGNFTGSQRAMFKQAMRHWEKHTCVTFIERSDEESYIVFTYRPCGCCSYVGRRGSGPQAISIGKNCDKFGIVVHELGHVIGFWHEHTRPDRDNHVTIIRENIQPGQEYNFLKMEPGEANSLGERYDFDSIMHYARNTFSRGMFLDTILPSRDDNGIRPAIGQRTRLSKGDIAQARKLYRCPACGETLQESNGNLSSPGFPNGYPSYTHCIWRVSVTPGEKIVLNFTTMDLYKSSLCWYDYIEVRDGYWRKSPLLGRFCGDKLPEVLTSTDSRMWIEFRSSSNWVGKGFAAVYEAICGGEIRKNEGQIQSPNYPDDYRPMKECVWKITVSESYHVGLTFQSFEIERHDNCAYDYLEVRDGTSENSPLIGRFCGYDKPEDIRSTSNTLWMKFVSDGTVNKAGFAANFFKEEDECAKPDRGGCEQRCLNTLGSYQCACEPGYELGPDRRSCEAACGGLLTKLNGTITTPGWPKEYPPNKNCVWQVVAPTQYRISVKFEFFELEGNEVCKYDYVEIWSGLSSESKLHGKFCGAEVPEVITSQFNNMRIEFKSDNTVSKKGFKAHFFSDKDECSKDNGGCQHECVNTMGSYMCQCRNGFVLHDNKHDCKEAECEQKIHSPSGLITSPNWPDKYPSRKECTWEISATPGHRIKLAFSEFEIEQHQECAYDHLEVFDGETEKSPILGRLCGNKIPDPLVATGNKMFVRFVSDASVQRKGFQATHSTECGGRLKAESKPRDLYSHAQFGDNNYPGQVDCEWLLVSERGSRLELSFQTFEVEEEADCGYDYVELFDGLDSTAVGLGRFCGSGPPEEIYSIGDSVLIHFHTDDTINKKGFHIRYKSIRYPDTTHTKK

Tolloid-like protein 2 = target: T2, Tolloid-like protein 2 (Homo sapiens, UniProt Q9Y6L7); experiment: Inhibition of C-terminal Avi-6x-His epitope tagged and N-terminal human RAGE signal sequence tagged recombinant human TLL2 (26 to 1015 amino acids) expressed in CHOE1A cells incubated for 60 mins with promyostatin peptide substrate by FRET based assay; type: cell-based
T2 sequence (Q9Y6L7 whole entry): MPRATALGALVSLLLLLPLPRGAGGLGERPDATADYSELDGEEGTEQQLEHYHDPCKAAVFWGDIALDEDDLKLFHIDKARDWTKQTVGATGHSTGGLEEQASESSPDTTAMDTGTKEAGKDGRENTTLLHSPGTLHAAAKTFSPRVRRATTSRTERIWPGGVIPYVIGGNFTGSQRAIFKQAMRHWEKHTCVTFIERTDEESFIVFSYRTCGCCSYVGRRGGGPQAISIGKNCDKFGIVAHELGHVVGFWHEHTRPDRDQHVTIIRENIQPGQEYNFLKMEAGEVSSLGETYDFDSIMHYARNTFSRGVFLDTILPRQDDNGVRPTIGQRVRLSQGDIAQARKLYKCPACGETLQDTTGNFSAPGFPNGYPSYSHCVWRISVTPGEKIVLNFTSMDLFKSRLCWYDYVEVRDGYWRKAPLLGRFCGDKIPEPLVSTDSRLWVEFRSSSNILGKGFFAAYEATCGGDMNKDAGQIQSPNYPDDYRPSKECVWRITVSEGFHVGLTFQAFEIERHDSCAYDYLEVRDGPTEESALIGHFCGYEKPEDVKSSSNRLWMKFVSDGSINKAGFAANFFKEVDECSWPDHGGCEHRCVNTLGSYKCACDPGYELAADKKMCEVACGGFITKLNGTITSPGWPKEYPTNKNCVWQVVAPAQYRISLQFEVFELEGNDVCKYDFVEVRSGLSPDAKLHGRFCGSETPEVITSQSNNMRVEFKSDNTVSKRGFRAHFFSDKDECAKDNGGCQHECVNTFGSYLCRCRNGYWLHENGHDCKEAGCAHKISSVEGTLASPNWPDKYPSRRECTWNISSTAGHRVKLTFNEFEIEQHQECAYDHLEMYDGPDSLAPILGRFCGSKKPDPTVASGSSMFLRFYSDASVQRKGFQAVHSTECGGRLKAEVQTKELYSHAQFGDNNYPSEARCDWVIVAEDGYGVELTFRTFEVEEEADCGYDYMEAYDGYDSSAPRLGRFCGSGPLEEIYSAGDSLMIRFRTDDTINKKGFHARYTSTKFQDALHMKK

[3] = Reduction in PICP levels in human cardiac fibroblasts incubated for 24 to 48 hrs by ELISA; type: functional

Structure (SMILES)	IC50 [1] [nM]	IC50 [2] [nM]	IC50 (Tolloid-like protein 1) [nM]	IC50 (Tolloid-like protein 2) [nM]	IC50 [3] [nM]
CCCCC[C@H](CN(O)C=O)C(=O)NCNC(=O)c1cccc(-c2cccc(C(=O)O)c2)c1	< 126	< 251	< 398	< 631	< 20000
CCCCC[C@H](CN(O)C=O)C(=O)NCNC(=O)c1cccc(-c2cccc(OC)c2F)c1	< 126	< 251	< 398	< 631	< 20000
CCCCC[C@H](CN(O)C=O)C(=O)NCNC(=O)c1cccc(-c2ccnn2CC)c1	< 126	< 251	< 398	< 631	< 20000
CCCCC[C@@H](C(=O)NCNC(=O)c1cc(C(=O)O)cc(-c2cc(OCC)cc(C(=O)O)c2)c1)[C@@H](CC)N(O)C=O	< 126	< 251			< 20000
CCCCC[C@H](CN(O)C=O)C(=O)NCNC(=O)c1cccc(-c2ccc(F)cc2)c1	< 126	< 251	< 398	< 631	< 20000
CCCCC[C@H](CN(O)C=O)C(=O)NCNC(=O)c1cccc(-c2cccc(OC(C)C)c2)c1	< 126	< 251	< 398	< 631	< 20000
CCCCC[C@H](CN(O)C=O)C(=O)NCNC(=O)c1cccc(-c2cccc(O)c2)c1	< 126	< 251	< 398	< 631	< 20000
CCCCC[C@H](CN(O)C=O)C(=O)NCNC(=O)c1cccc(-c2cccc(C(N)=O)c2)c1	< 126	< 251	< 398	< 631	< 20000
CCCCC[C@H](CN(O)C=O)C(=O)NCNC(=O)c1cccc(-c2cccc(NS(C)(=O)=O)c2)c1	< 126	< 251	< 398	< 631	< 20000
COc1cncc(-c2cccc(C(=O)NCNC(=O)[C@H](CC3CCCC3)CN(O)C=O)c2)c1	< 126	< 251	< 398	< 631	< 20000
CCCCC[C@H](CN(O)C=O)C(=O)NCNC(=O)c1cccc(-c2ccc(OC)cc2)c1	< 126	< 251	< 398	< 631	< 20000
CCCCC[C@H](CN(O)C=O)C(=O)NCNC(=O)c1cccc(-c2cccc(S(N)(=O)=O)c2)c1	< 126	< 251	< 398	< 631	< 20000
CCCCC[C@H](CN(O)C=O)C(=O)NCNC(=O)c1cccc(-c2cncc(OC)c2)c1	< 126	< 251	< 398	< 631	< 20000
CCCCC[C@H](CN(O)C=O)C(=O)NCNC(=O)c1cccc(-c2ccc(N(C)C)cc2)c1	< 126	< 251	< 398	< 631	< 20000
CCCCC[C@H](CN(O)C=O)C(=O)NCNC(=O)c1cccc(-c2cccc(N(C)C)c2)c1	< 126	< 251	< 398	< 631	< 20000
CCCCC[C@H](CN(O)C=O)C(=O)NCNC(=O)c1cccc(-c2ccc(F)c(OC)c2)c1	< 126	< 251	< 398	< 631	< 20000
CCCCC[C@H](CN(O)C=O)C(=O)NCNC(=O)c1cccc(-c2cccc(OCC(F)(F)F)c2)c1	< 126	< 251	< 398	< 631	< 20000
CCCCC[C@H](CN(O)C=O)C(=O)NCNC(=O)c1cccc(-c2cccc(S(C)(=O)=O)c2)c1	< 126	< 251	< 398	< 631	< 20000
CCCCC[C@H](CN(O)C=O)C(=O)NCNC(=O)c1cccc(-c2ccccc2F)c1	< 126	< 251	< 398	< 631	< 20000
